Data taken from US20110207697A1, “XANTHOHUMOL COMPOSITIONS AND METHODS FOR TREATING SKIN DISEASES OR DISORDERS” (Betal, LLC, priority 2008, published 2011).

Tests used:
[1] = Singlet oxygen absorbance capacity (SOAC); settings: expressed as mmol VtE/g
Description: [table] Alpha-tocopherol (vitamin E) was used as the calibration standard, and the SOAC result is expressed as mmol VtE/g. The higher the SOAC score, the higher the singlet oxygen-quenching capacity. […] Singlet oxygen has been postulated to be a highly reactive and toxic intermediate against skin. It is known that the acne-causing bacterium P. acnes naturally produces high amounts of intracellular porphyrins, mostly coproporphyrin (Ashkenazi et al. 2003). Singlet oxygen can be generated on the skin surface from P. acnes porphyrins under sunlight and induce serious skin damage ([…] et al. 1996 Biochem. Biophys. Res. Commun. 223: 578-582). Various skin disorders progress through a singlet oxygen-dependent mechanism, including acne, atopic dermatitis, and skin aging. Both hydrophilic and lipophilic oxygen radical absorbance capacity (ORAC) assays were carried out at Brunswick Laboratory (Wareham, Mass.) based on the modified ORACfl method reported by Ou et al. (2001 J. Agric. Food Chem. 49: 4619-4626, 2002 J. Agr. Food Chem. 50: 3122-3128). Trolox, a water-soluble vitamin E analog, was used as the calibration standard. The data are expressed as mmole of Trolox equivalents per gram (mmol TE/g). The acceptable precision of the ORAC assay is a 15% relative standard deviation. Caffeic acid was used as the calibration standard. Hydroxyl radical ORAC (HOR-AC) is expressed as mmole caffeic acid equivalent per gram (mmol CAE/g). Trolox was used as the calibration standard. The peroxyl nitrite ORAC (NORAC) result is expressed as mmol TE/g. Alpha-tocopherol (vitamin E) was used as the calibration standard, and the singlet oxygen absorbance capacity (SOAC) result is expressed as mmole a-tocopherol equivalent (mmol VtE) per gram (Aubry et al. 1989). […] Radical-scavenging activity was measured by the change in absorbance at 517 nm with the DPPH result expressed as mmol TE/g. […] The FRAP result is expressed as mmol TE/g (Ou et al. 2002b). Superoxide dismutase (SOD) was used as a calibration standard; the SOD result is expressed as kilo unit SOD equivalent (kunitSODeq) per gram.

[2] = Lipophilic oxygen radical absorbance capacity (ORAC-L); settings: lipid soluble antioxidant capacity; expressed as mmol TE/g; — = No activity detected
Description: Thus the ORAC method has become a widely used method for assessing antioxidant capacity in biological samples and foods. However, because of its inability to measure both hydrophilic and lipophilic antioxidants, the method has its limitations. An ORAC method for lipophilic antioxidants was further developed and validated using fluorescein as the fluorescent probe (Prior et al. 2003 J. Agric. Food Chem. 51: 3273-3279). […] In the present work, the ORAC value is expressed as the sum of values of both the water-soluble and fat-soluble parts. […] Both hydrophilic and lipophilic oxygen radical absorbance capacity (ORAC) assays were carried out at Brunswick Laboratory (Wareham, Mass.) based on the modified ORACfl method reported by Ou et al. (2001 J. Agric. Food Chem. 49: 4619-4626, 2002 J. Agr. Food Chem. 50: 3122-3128). Trolox, a water-soluble vitamin E analog, was used as the calibration standard. The data are expressed as mmole of Trolox equivalents per gram (mmol TE/g). […] Hydroxyl radical ORAC (HOR-AC) is expressed as mmole caffeic acid equivalent per gram (mmol CAE/g). […] The peroxyl nitrite ORAC (NORAC) result is expressed as mmol TE/g. […] Radical-scavenging activity was measured by the change in absorbance at 517 nm with the DPPH result expressed as mmol TE/g. […] The FRAP result is expressed as mmol TE/g (Ou et al. 2002b).

[3] = ORAC-Total (ORAClipo + ORAChydro); settings: ORAClipo + ORAChydro
Description: An ORAC method for lipophilic antioxidants was further developed and validated using fluorescein as the fluorescent probe (Prior et al. 2003 J. Agric. Food Chem. 51: 3273-3279). This method has the advantage that similar assay conditions and standards can be used for both hydrophilic and lipophilic antioxidant components, such that the two values can be added together to obtain a total antioxidant capacity. In the present work, the ORAC value is expressed as the sum of values of both the water-soluble and fat-soluble parts. Green tea catechins (Polyphenon 60) were used as the control with the highest ORAC value among edible plants. Vitamin C and vitamin E were used as controls for water- and fat-soluble molecules, respectively. […] The SOAC scores are not included in this figure; ORAC values used are the sum of lipophilic and hydrophilic results. For each assay category, scaling was made logarithmic so that the plot on the chart resembles the associated rating. […] The larger the spatial area, the higher the overall antioxidative capacity. […] Both hydrophilic and lipophilic oxygen radical absorbance capacity (ORAC) assays were carried out at Brunswick Laboratory (Wareham, Mass.) based on the modified ORACfl method reported by Ou et al. (2001 J. Agric. Food Chem. 49: 4619-4626, 2002 J. Agr. Food Chem. 50: 3122-3128). Trolox, a water-soluble vitamin E analog, was used as the calibration standard. The data are expressed as mmole of Trolox equivalents per gram (mmol TE/g). The acceptable precision of the ORAC assay is a 15% relative standard deviation. Caffeic acid was used as the calibration standard. Hydroxyl radical ORAC (HOR-AC) is expressed as mmole caffeic acid equivalent per gram (mmol CAE/g). Trolox was used as the calibration standard. The peroxyl nitrite ORAC (NORAC) result is expressed as mmol TE/g. Alpha-tocopherol (vitamin E) was used as the calibration standard, and the singlet oxygen absorbance capacity (SOAC) result is expressed as mmole a-tocopherol equivalent (mmol VtE) per gram (Aubry et al. 1989). The abbreviation for the 1,1-diphenyl-2-picrylhydrazyl radical is DPPH. Radical-scavenging activity was measured by the change in absorbance at 517 nm with the DPPH result expressed as mmol TE/g. Similarly, FRAP is an abbreviation for the ferric reducing antioxidative power method, which utilizes chemical conversion of the yellow Fe 3+-2,4,6-tripyridyl s-triazine (TPTZ) complex to the blue Fe 2+-TPTZ complex by electron donation under acidic conditions (Okada and Okada 1998 J. Agric. Food Chem. 46: 401-406). The FRAP result is expressed as mmol TE/g (Ou et al. 2002b). Superoxide dismutase (SOD) was used as a calibration standard; the SOD result is expressed as kilo unit SOD equivalent (kunitSODeq) per gram.

SMILES	SOAC (Vitamin E equivalent) [1]	ORAC-L (Trolox equivalent) [2]	ORAC-Total (Trolox equivalent) [3]
Cc1c(C)c2c(c(C)c1O)CC[C@@](C)(CCC[C@H](C)CCC[C@H](C)CCCC(C)C)O2 [Vitamin E, Alpha-tocopherol, reference compound]	1.0 Vitamin E equivalent	0.75 Trolox equivalent	0.75 Trolox equivalent
O=C1O[C@H]([C@@H](O)CO)C(O)=C1O [Vitamin C, reference compound]			1.4 Trolox equivalent
